Source: ChEMBL document CHEMBL4000201, “Benzylideneoxymorphone: A new lead for development of bifunctional mu/delta opioid receptor ligands” (Bioorg Med Chem Lett, 2017)

Tests used:
[1] = Displacement of [3H]DPDPE from DOR in guinea pig brain membranes measured after 60 mins by scintillation counting method; assay type: cell membranes, Cavia porcellus, Membrane
[2] = target: Delta-type opioid receptor (Homo sapiens, UniProt P41143); assay: Displacement of [3H]DPDPE from human DOR expressed in CHO cells; assay type: cell-based
Mu-type opioid receptor = Mu-type opioid receptor (Homo sapiens, UniProt P35372); assay: Displacement of [3H]DAMGO from human MOR expressed in CHO cells; assay type: cell-based
Mus musculus [3] = assay: Antinociceptive activity in Swiss-Webster mouse assessed as time required for peak effect at 60 mg/kg, sc after 30 mins measured every 20 mins for 90 mins by hot plate test; assay type: functional
Mus musculus [4] = assay: Antinociceptive activity in Swiss-Webster mouse assessed as maximum possible effect at 20 to 60 mg/kg, sc after 30 mins measured every 20 mins for 90 mins by hot plate test; assay type: functional

Sequence of Mu-type opioid receptor (P35372 whole entry): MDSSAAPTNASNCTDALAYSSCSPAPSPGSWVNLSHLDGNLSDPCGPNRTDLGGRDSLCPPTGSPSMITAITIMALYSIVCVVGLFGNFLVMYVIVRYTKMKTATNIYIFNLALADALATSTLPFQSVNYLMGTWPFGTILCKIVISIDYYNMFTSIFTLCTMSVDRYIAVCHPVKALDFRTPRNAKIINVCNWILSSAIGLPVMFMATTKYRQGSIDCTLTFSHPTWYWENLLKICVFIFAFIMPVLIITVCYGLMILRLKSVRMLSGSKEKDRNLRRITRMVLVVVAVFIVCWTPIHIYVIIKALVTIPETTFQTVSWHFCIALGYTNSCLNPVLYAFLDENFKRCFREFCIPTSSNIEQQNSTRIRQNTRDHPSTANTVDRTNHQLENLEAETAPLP
Sequence of Delta-type opioid receptor (P41143 whole entry): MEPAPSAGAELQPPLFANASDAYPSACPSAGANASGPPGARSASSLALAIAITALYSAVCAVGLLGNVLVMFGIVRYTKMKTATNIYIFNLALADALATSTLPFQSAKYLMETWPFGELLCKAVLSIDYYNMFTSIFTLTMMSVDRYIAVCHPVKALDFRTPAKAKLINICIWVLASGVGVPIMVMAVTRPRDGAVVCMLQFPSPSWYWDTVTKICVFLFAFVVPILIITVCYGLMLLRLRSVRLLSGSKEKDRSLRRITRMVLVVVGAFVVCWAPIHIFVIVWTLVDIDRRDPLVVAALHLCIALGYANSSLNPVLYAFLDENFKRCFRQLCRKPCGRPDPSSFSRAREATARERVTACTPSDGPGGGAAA

SMILES | Ki [1] [nM] | Ki [2] [nM] | Ki (Mu-type opioid receptor) [nM] | Time (Mus musculus [3]) [min] | MPE (Mus musculus [4]) [%]
O=C1/C(=C/c2ccccc2)C[C@@]2(O)[C@H]3Cc4ccc(O)c5c4[C@@]2(CCN3CC2CC2)[C@H]1O5 [BNTX] | 6.2 | – | – | – | –
O=C1/C(=C/c2ccccc2)C[C@@]2(O)[C@H]3Cc4ccc(O)c5c4[C@@]2(CCN3CCCc2ccccc2)[C@H]1O5 | – | 168 | 313 | – | –
CN1CC[C@]23c4c5ccc(O)c4O[C@H]2C(=O)/C(=C/c2ccccc2)C[C@@]3(O)[C@H]1C5 | – | 14.4 | 17.5 | 50 | 40
